Source: publication PMC4208844 (PLoS ONE, 2014)

Columns and labels:
CYP3A4/5 = CYP3A4/5 catalytic activity, testosterone 6β-hydroxylation in human liver microsomes; conditions: pH 7.4, probe testosterone (6β-hydroxylation)
[1] = MTT cytotoxicity test in LS174T cells; conditions: human
Protocol: (§1) A transiently transfected LS174T human colon adenocarcinoma cells were used for assessment of PXR transcriptional activity. […] The reporter plasmid was transiently transfected to LS174T cells by lipofection (FuGENE 6). Cells were incubated for 24 h with tested compounds and/or vehicle (DMSO; 0.1% v/v), in the presence or absence of RIF (10 µM; LS174T cells). After the treatments, cells were lysed and luciferase activity was measured. In parallel, cell viability was determined by conventional MTT test [MTT = 3-(4,5-dimethylthiazol-2-yl)-2,5-diphenyltetrazolium bromide]; briefly: After the treatment, culture medium was replaced with fresh one and 100 µL of MTT reagent (5 mg/mL PBS) was added. Three hours later, the medium was removed, and cells were washed with PBS and lysed for 5 min with 1 mL of DMSO containing 1% ammonia. The lysate was diluted 20 times with DMSO (+1% ammonia) and absorbance at 540 nm was measured against blank (DMSO+1% ammonia) (TECAN, Schoeller Instruments LLC). Results were normalized to the control value (i.e. 100×A sample/A control) and expressed as percentage of control.

CYP3A4 protein = CYP3A4 protein expression (Western blot) in HepG2 cells; assay type: cell-based, human; conditions: 48 h
Protocol: Human colon adenocarcinoma cells LS174T (ECACC No. 87060401) and human hepatocellular carcinoma cells HepG2 (ECACC No. 85011430) were purchased from ECACC and were cultured in as recommended by manufacturer. Primary human hepatocytes used in this study were obtained from two sources: (i) from multiorgan donors HH52 and […] (male; 71 years); the use of liver cells of donors HH52 and HH54 was approved by “Ethical committee at the Faculty Hospital Olomouc”, and it was in accordance with Transplantation law #285/2002 Sb; “Ethical committee at the Faculty Hospital Olomouc” waived the authors from obtaining consent from the next of kin, regarding human hepatocytes obtained from liver donors HH52 and HH54. (ii) long-term human hepatocytes in monolayer Batch HEP220770 (person) were purchased from Biopredic International (Biopredic International, Rennes, France). Cells were cultured in serum-free medium. Cultures were maintained at 37°C and 5% CO2 in a humidified incubator.
Total protein extracts were prepared as described elsewhere. SDS-PAGE gels (10%) were run according to the general procedure followed by the protein transfer onto PVDF membrane. The membrane was saturated with 5% non-fat dried milk. […] The density of bands was measured by densitometry.

pregnane X receptor PXR = biological target: T1, pregnane X receptor PXR (Homo sapiens, UniProt O75469); conditions: read-out: PXR antagonist IC50; transfected LS174T cells; 24 h; in the presence of RIF (10 µM)
T1 sequence (O75469 1-434): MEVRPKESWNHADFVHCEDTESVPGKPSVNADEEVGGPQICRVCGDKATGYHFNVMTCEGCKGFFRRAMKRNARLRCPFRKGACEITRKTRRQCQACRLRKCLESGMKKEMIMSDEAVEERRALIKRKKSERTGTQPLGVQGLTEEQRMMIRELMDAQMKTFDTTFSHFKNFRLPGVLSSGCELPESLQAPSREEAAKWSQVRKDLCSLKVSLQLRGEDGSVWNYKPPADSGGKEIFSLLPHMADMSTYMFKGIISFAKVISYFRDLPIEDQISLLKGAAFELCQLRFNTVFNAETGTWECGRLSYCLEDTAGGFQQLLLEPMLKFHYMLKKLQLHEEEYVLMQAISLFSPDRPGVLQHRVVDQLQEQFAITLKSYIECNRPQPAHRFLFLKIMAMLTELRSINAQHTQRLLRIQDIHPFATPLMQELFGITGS

LS174T cells = assay: MTT cytotoxicity test in LS174T cells; conditions: read-out: MTT test IC50 (cytotoxicity); LS174T cells; 24 h incubation
Protocol: as §1

**Q.** With `CC(=O)N1CCN(c2ccc(OCC3COC(Cn4ccnc4)(c4ccc(Cl)cc4Cl)O3)cc2)CC1` (racemic) [(rac)-KET, ketoconazole] as the compound, how does the activity at 10 µM (CYP3A4/5) read?
**A.** The activity at 10 µM was 3%.

**Q.** What about the IC50 at 24 h [1] of the same compound?
**A.** The IC50 at 24 h was 50.3 µM.

**Q.** What about the “CYP3A4 protein induction (in words)” value (CYP3A4 protein) of the same compound?
**A.** Its value is “did not find convincing induction”.

**Q.** With `CC(=O)N1CCN(c2ccc(OC[C@H]3CO[C@](Cn4ccnc4)(c4ccc(Cl)cc4Cl)O3)cc2)CC1` [(+)-KET, (2R,4S)-(+)-KET] as the compound, how does the IC50 (pregnane X receptor PXR) read?
**A.** Its IC50 is 41.2 µM.

**Q.** And the IC50 (LS174T cells)?
**A.** The IC50 was 52.7 µM.

**Q.** Which IC50 at 24 h [1] does the source give for `CC(=O)N1CCN(c2ccc(OC[C@@H]3CO[C@@](Cn4ccnc4)(c4ccc(Cl)cc4Cl)O3)cc2)CC1` [(−)-KET, (2S,4R)-(−)-KET] here?
**A.** Its IC50 at 24 h is 57.5 µM.
